The source of these data is paper PMC12148441, “The mechanism of peptidoglycan O-acetylation in Gram-negative bacteria typifies bacterial MBOAT-SGNH acyltransferases [drawing 1]” (The Journal of Biological Chemistry, 2025).

The target of the experiment is T1, NgPatBΔ100 (Neisseria gonorrhoeae, UniProt Q5F966).
T1 construct: gene NGO_0533; SGNH domain (Δ100, N-terminal truncation), E. coli BL21(DE3), His-SUMO tag removed by Ulp1; catalytic Ser133, His305, Asp302
Put plainly: transacetylation of chitopentaose. It is filed as biochemical. The conditions noted are these: acetyl donor (1 mM acetyl-amino acids); chitopentaose acceptor; 50 mM sodium phosphate pH 7.0.

T1 sequence (Q5F966 entry or part of it, stated change not applied): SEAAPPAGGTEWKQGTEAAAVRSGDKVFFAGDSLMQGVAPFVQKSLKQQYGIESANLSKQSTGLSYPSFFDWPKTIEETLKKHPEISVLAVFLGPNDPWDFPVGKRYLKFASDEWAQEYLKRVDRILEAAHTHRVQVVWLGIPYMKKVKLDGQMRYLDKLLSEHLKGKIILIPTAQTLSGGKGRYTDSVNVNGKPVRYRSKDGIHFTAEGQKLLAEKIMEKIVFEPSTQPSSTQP

`CC(=O)Oc1ccc(C[C@H](N)C(=O)O)cc1` [O-acetyl-Tyr]: the transacetylation of chitopentaose result was “O-acetyl-Tyr, but not O-acetyl-Ser, were sufficient for transacetylation of chitopentaose by NgPatB”.
